Laboratory results: patent US4263295A, “Psychoactive 3-(1-2-diarylethyl)-1,4,5,6-tetrahydro-1,2,4-triazines and their method of use” (The Dow Chemical Company, priority 1977, dated 1981)
Structures can show the parent of a compound that is named as a salt.

Assays:
[1] = test system: serum corticosteroid levels; assay: Block of stress-induced rise of serum corticosteroid levels (antianxiety); type: in vivo; details: stressed male rats, 20 mg/kg i.p.; for response vs control in vivo at 20 mg/kg: Rattus norvegicus, ip, saline control 100, values below 100% are indicative of activity, read-out: Serum Corticosteroid Levels μg %
Experimental: See British Medical Journal, 1971 (2), p. 310-313. Corticosteroid levels were compared between stressed male rats pretreated with 20 mg/kg of the active compound given by intraperitoneal injection to corticosteroid levels of stressed male rats pretreated with saline. Blood (3 ml) was collected by means of cardiac puncture after methoxyflurane anesthesia. Following clotting, the blood was centrifuged to separate the serum for use in the corticosteroid analysis. The analysis was carried out by adding 5 ml of methylene chloride to 300 μl of the serum sample and vortexing the sample for 15-20 seconds. The samples were then centrifuged at 41 xg for about 5 minutes. The lipid layer was removed by aspiration and 3 ml of the methylene chloride fraction was transferred to a clean tube. To this sample, 3 ml of fluorescence reagent (25% ethanol and 75% concentrated sulfuric acid) was added and vortexed for 5 seconds. Fluorescence development was complete in 20 minutes and was read on a Perkin-Elmer® fluorometer Model 204 at an exciter wavelength of 470 mμ and an analyzer wavelength of 530 mμ. This assay measures free cortisol and corticosterone. The corticosteroid values were calculated as follows: [formula] […] Values below 100% are indicative of activity.

reserpine-induced ptosis = assay: Protection against reserpine-induced ptosis (antidepressant); type: in vivo; details: Mus musculus; mice, 30 mg/kg i.p.; reserpine 2.5 mg/kg s.c. after 30 minutes; graded after 45 minutes; saline control 0
Experimental: Groups of four mice were administered 30 mg/kg of the 3-(1,2-diarylethyl)-1,4,5,6-tetrahydro-1,2,4-triazine compounds by intraperitoneal injection via an aqueous carrier. A similar group of mice serving as controls were injected only with the carrier. After 30 minutes, both groups of mice were injected subcutaneously with 2.5 mg/kg of reserpine.
Animals injected with the triazine compound were graded after 45 minutes on the following basis: no ptosis=0, partial ptosis=1, complete ptosis=2. Complete protection against reserpine-induced ptosis gives a value of 0 or 100%.

anxiety = assay: Antianxiety activity, test not specified (background and summary statements); type: in vivo; details: test not stated
depression = details: U.S. Pat. No. 3,471,486; Journal of Medicinal Chemistry, 12, 257 (1969); cited from earlier work

With c1ccc(CC(C2=NNCCN2)c2cccc3ccccc23)cc1 (stereo not drawn) [Example 11] the response vs control in vivo at 20 mg/kg [1] was 77% and the inhibition at 30 mg/kg (reserpine-induced ptosis) was 25%.
For Cc1cccc(CC(C2=NNCCN2)c2ccccc2)c1 (stereo not drawn) [Example 5], the response vs control in vivo at 20 mg/kg [1] was 32% and the inhibition at 30 mg/kg (reserpine-induced ptosis) was 25%.
With Cc1ccc(CC(C2=NNCCN2)c2ccccc2)cc1C (stereo not drawn) [Example 12] the response vs control in vivo at 20 mg/kg [1] was 33%, the “antianxiety activity (in words, from Table II)” value [1] was “especially active as antianxiety agents” and the inhibition at 30 mg/kg (reserpine-induced ptosis) was 25%.
With Fc1cccc(CC(C2=NNCCN2)c2ccccc2)c1 (stereo not drawn) [Example 17] the response vs control in vivo at 20 mg/kg [1] was 62% and the inhibition at 30 mg/kg (reserpine-induced ptosis) was 25%.
For COc1ccc(C(Cc2ccc(F)cc2)C2=NNCCN2)cc1 (stereo not drawn) [Example 3, 3-(2-(4-Fluorophenyl)-1-(4-methoxyphenyl)ethyl)-1,4,5,6-tetrahydro-1,2,4-triazine monohydrochloride], the response vs control in vivo at 20 mg/kg [1] was 82% and the inhibition at 30 mg/kg (reserpine-induced ptosis) was 38%.
c1ccc(C(Cc2cccc3ccccc23)C2=NNCCN2)cc1 (stereo not drawn) [Example 15] gave a response vs control in vivo at 20 mg/kg [1] of 72% and an inhibition at 30 mg/kg (reserpine-induced ptosis) of 13%.
Work on Cc1ccc(C(Cc2ccccc2)C2=NNCCN2)cc1 (stereo not drawn) [Example 4, 3-(1-(4-Methylphenyl)-2-phenylethyl)-1,4,5,6-tetrahydro-1,2,4-triazine monohydrochloride] yielded a response vs control in vivo at 20 mg/kg [1] of 67% and an inhibition at 30 mg/kg (reserpine-induced ptosis) of 38%.
Clc1ccc(CC(C2=NNCCN2)c2ccccc2)cc1Cl (stereo not drawn) [Example 14] gave a response vs control in vivo at 20 mg/kg [1] of 79% and an inhibition at 30 mg/kg (reserpine-induced ptosis) of 63%.
c1ccc(CC(C2=NNCCN2)c2ccc3ccccc3c2)cc1 (stereo not drawn) [Example 10, 3-(1-(2-Naphthalenyl)-2-phenylethyl)-1,4,5,6-tetrahydro-1,2,4-triazine monohydrochloride] gave a response vs control in vivo at 20 mg/kg [1] of 54% and an inhibition at 30 mg/kg (reserpine-induced ptosis) of 50%.
In the case of c1ccc(C(Cc2ccc3ccccc3c2)C2=NNCCN2)cc1 (stereo not drawn) [Example 16], the response vs control in vivo at 20 mg/kg [1] is reported as 39%, the “antianxiety activity (in words, from Table II)” value [1] is reported as “especially active as antianxiety agents” and the inhibition at 30 mg/kg (reserpine-induced ptosis) is reported as 42%.
CC(=O)N1CCN(C)N=C1C(Cc1ccccc1)c1ccccc1 (stereo not drawn) [Example 19, 4-acetyl-3-(1,2-diphenylethyl)-1,4,5,6-tetrahydro-1-methyl-1,2,4-triazine monohydrochloride] gave a response vs control in vivo at 20 mg/kg [1] of 77% and an inhibition at 30 mg/kg (reserpine-induced ptosis) of 13%.
With Cc1ccc(CC(C2=NNCCN2)c2ccccc2)cc1 (stereo not drawn) [Example 6] the response vs control in vivo at 20 mg/kg [1] was 62% and the inhibition at 30 mg/kg (reserpine-induced ptosis) was 50%.
With c1ccc(CC(C2=NNCCN2)c2ccc3c(c2)OCO3)cc1 (stereo not drawn) [Example 9] the response vs control in vivo at 20 mg/kg [1] was 33%, the “antianxiety activity (in words, from Table II)” value [1] was “especially active as antianxiety agents” and the inhibition at 30 mg/kg (reserpine-induced ptosis) was 50%.
In the case of c1ccc(CC(C2=NNCCN2)c2ccccc2)cc1 (stereo not drawn) [3-(1,2-diphenylethyl)-1,4,5,6-tetrahydro-1,2,4-triazine], the “antianxiety activity of prior-art compound (in words)” value (anxiety) is listed as “essentially inactive” and the “antidepressant activity of prior-art compound (in words)” value (depression) is listed as “antidepressant”.
Compound Clc1cccc(CC(C2=NNCCN2)c2ccccc2)c1 (stereo not drawn) [Example 7] has a response vs control in vivo at 20 mg/kg [1] of 75% and an inhibition at 30 mg/kg (reserpine-induced ptosis) of 88%.
In the case of Cc1cccc(C(Cc2ccccc2)C2=NNCCN2)c1 (stereo not drawn) [Example 8], the response vs control in vivo at 20 mg/kg [1] is reported as 52% and the inhibition at 30 mg/kg (reserpine-induced ptosis) is reported as 38%.
With Cl.Fc1ccc(CC(C2=NNCCN2)c2ccccc2)cc1 (stereo not drawn) [Example 1, 3-(2-(4-fluorophenyl)-1-phenylethyl)-1,4,5,6-tetrahydro-1,2,4-triazine monohydrochloride] the response vs control in vivo at 20 mg/kg [1] was 25%, the “antianxiety activity (in words, from Table II)” value [1] was “especially active as antianxiety agents” and the inhibition at 30 mg/kg (reserpine-induced ptosis) was 63%.
With Cl.Clc1ccc(CC(C2=NNCCN2)c2ccccc2)cc1 (stereo not drawn) [Example 2, 3-(2-(4-Chlorophenyl)-1-phenylethyl)-1,4,5,6-tetrahydro-1,2,4-triazine monohydrochloride] the response vs control in vivo at 20 mg/kg [1] was 13%, the “antianxiety activity (in words, from Table II)” value [1] was “especially active as antianxiety agents” and the inhibition at 30 mg/kg (reserpine-induced ptosis) was 88%.
Compound CN1CCNC(C(Cc2ccc(Cl)cc2)c2ccccc2)=N1 (stereo not drawn) [Example 18, 3-(2-(4-Chlorophenyl)-1-phenylethyl)-1,4,5,6-tetrahydro-1-methyl-1,2,4-triazine monohydrochloride] has a response vs control in vivo at 20 mg/kg [1] of 77% and an inhibition at 30 mg/kg (reserpine-induced ptosis) of 50%.
Clc1cccc(Cl)c1CC(C1=NNCCN1)c1ccccc1 (stereo not drawn) [Example 13, 3-(2-(2,6-Dichlorophenyl)-1-phenylethyl)-1,4,5,6-tetrahydro-1,2,4-triazine monohydrochloride] showed a response vs control in vivo at 20 mg/kg [1] of 39% and an inhibition at 30 mg/kg (reserpine-induced ptosis) of 88%.
